Measured values taken from US20140220552A1, “BLOOD COLLECTION DEVICES CONTAINING CONTACT PATHWAY INHIBITION ADDITIVES” (Becton, Dickinson and Company, priority 2013, published 2014).
“Also recorded” adds a separate entry of the source.

Columns and labels:
[1] = tested on: TF coagulation pathway; experiment: PT assay in plasma (high dose tissue factor); format: biochemical, human; conditions: for thrombin generation in tests that monitor the TF coagulation pathway exclusively: identical samples as aPTT, FIG. 6 lower panels; for PT clotting time result: plasma containing inhibitor, FIG. 6
Source text: (§1) FIG. 6 was obtained by performing matched aPTT, PT, and TT assays from plasma containing various inhibitors. These assays are well known to those skilled in the art and are not described in great detail here. […] Corn trypsin inhibitor (CTI) was included as a control since it is the factor XIIa inhibitor currently available in a blood collection tube.
This verifies that aprotinin exclusively suppresses thrombin formation through the contact coagulation pathway but not through the TF pathway.

[2] = tested on: thrombin; experiment: TT assay in plasma (exogenous thrombin); format: biochemical, human; conditions: plasma containing inhibitor, FIG. 6
Source text: as §1

[3] = tested on: contact coagulation pathway; experiment: activated partial thromboplastin time (aPTT) assay in plasma; format: biochemical, human; conditions: plasma containing inhibitor, FIG. 6, anti-FXI antibody at 7.5 μg/mL
Source text: as §1
(§2) Citrated human WB is transferred from a blood collection bag into coated (siliconized) glass or plastic blood collection tubes, or uncoated glass, polypropylene (PP), polystyrene (PS), or polyethylene terephthalate (PET) conical bottom tubes, either alone or in the presence of inhibitors targeting kallikrein (e.g. aprotinin) or FXIa (e.g. anti-human Factor XI antibody). After 15 minutes incubation, the TEG R value is obtained immediately after addition of 10 mM CaCl2. Matched plasma specimens are analyzed by the CAT in the presence and absence of 1 picomolar Tissue Factor (TF) and by activated partial thromboplastin time (APTT; Stago Compact). Data are analyzed by ANOVA with Tukey's post-test and by linear regression.

[4] = tested on: thrombin generation; experiment: Calibrated Automated Thrombogram (CAT) thrombin generation assay in citrated plasma; format: biochemical, human
Source text: FIGS. 3A and 3B is a table and chart comparing thrombin generation from citrated plasma obtained from tubes made of various materials using the Calibrated Automated Thrombogram (CAT) assay. The CAT assay, rather than measuring coagulation, combines the use of a fluorogenic substrate that is cleaved in the presence of thrombin as well as a calibrator to provide a quantitative measurement of thrombin generation in a recalcified plasma sample. The predominant use of this assay is to examine the thrombin generation profile of a clinical research sample in response to tissue factor (TF). […] The charts contained in FIG. 3B provide example thrombin generation curves that were used to populate the data table in FIG. 3A.
as §2, with “After 15 minutes incubation, the TEG R value is obtained immediately after addition of 10 mM CaCl2.” left out, “regression. […]” for “regression.”

[5] = sterilization stability of the additive in a blood collection tube; format: physicochemical
Source text: FIG. 7 provides a comparison of kallikrein, factor XIIa, and factor IX inhibition for the purposes of mitigating contact pathway contributions to thrombin generation.
An advantage of using aprotinin over CTI or anti-Factor XI antibody is that neither of the latter two inhibitors can be present in a tube that has been sterilized.

[6] = tested on: contact coagulation pathway; experiment: Thrombelastography (TEG) citrated-native whole blood clotting time (R time) after recalcification; format: biochemical, human
Method: FIGS. 2A and 2B are a table and chart comparing recalcified clotting times for tubes made from various materials using a Thrombelastograph® (TEG) 5000 Hemostasis Analyzer. […] Briefly, BD Vacutainer® 369714 glass and 363083 plastic citrate tubes were washed and dried to remove the citrate additive. Afterwards, tubes were filled to capacity using a commercial bag of citrated human whole blood. Samples were incubated for 15 minutes at room temperature with gentle rocking to promote blood contact with the surface material of the tube wall. Finally, the whole blood clotting time was measured using combined recalcification and TEG. […] Furthermore, it is important to note that only highly sensitive coagulation assays that are performed in the absence of a strong contact pathway activator will be sensitive to these differences.
The titration was performed by evaluating whole blood clotting time (TEG R time). A minimally effective dose was determined at 1000 kallikrein inhibitor units (1000 KIU) per mL of blood as concentrations below that only provided mean clotting times that were either equivalent or lower to that of siliconized glass.
The titration was performed by evaluating whole blood clotting time (TEG R time).
as §2
As shown in FIG. 4(A) various concentrations of aprotinin were used in tests to determine the impact on whole blood clotting time using TEG. […]

Corn trypsin inhibitor [CTI]
thrombin generation in tests that monitor the TF coagulation pathway exclusively [1]: unaffected | PT clotting time result [1]: none of the inhibitors produced prolonged PT or TT assays | TT clotting time result [2]: none of the inhibitors produced prolonged PT or TT assays | aPTT result [3]: Equivalent inhibition

aprotinin
mitigation of contact pathway contributions to thrombin generation (CAT) ([4]; glass and plastic citrate tubes, FIG. 7): robustly diminished; also recorded: equivalent to that of CTI and anti-Factor XI antibody | thrombin generation (CAT), effect of increasing aprotinin ([4]; siliconized glass and plastic tubes, FIG. 4B): delays and reduces thrombin generation in a dose dependent fashion; also recorded: thrombin generation is decreased and delayed | thrombin generation in tests that monitor the TF coagulation pathway exclusively [1]: unaffected | PT clotting time result [1]: none of the inhibitors produced prolonged PT or TT assays | TT clotting time result [2]: none of the inhibitors produced prolonged PT or TT assays | sterilization stability [5]: sterilization stable | aPTT result [3]: equivalent to or greater than the time to generate thrombin in the presence of CTI and anti-Factor XI antibody | aPTT result ([3]; listed as Aprotinin): dose dependent effect | whole blood clotting time (TEG R time) ([6]; 2000 KIU/mL aprotinin, blood in uncoated glass, compared with siliconized glass or plastic): longer clotting times than that of blood stored in either siliconized glass or plastic | minimally effective dose by whole blood clotting time (TEG R time) ([6]; aprotinin titration in citrated blood, lower concentrations gave clotting times equivalent or lower to siliconized glass): 1000 KIU per mL of blood | aprotinin concentration mitigating the contact coagulation pathway in uncoated glass tubes to a level equivalent to siliconized glass or plastic tubes ([6]; citrated blood in uncoated glass tubes, TEG): ≥ 1000 KIU/mL
